In publication PMC6612245 (Journal of the American Chemical Society, 2019):

Experiments:
Type in all cases: biochemical
ForC = molecular target: T1, ForC (Streptomyces kaniharaensis, UniProt A0A5S9FY43); experiment: anion exchange HPLC, substrate consumption; conditions: L-aspartate and ATP; 4 h
T1 sequence (A0A5S9FY43 1-333): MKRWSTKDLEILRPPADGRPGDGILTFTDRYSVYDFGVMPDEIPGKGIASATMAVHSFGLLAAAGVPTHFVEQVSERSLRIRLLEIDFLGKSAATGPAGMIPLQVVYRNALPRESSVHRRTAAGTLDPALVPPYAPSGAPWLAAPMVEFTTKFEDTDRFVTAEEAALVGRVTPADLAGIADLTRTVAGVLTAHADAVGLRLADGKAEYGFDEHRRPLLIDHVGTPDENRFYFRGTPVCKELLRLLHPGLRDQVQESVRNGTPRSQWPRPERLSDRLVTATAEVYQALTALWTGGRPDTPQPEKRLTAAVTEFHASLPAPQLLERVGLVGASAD

EcPurH [1] = molecular target: T2, EcPurH (Escherichia coli, UniProt P15639); experiment: enzymatic preparation of 6b; conditions: formylation to 6b
T2 sequence (P15639 whole entry): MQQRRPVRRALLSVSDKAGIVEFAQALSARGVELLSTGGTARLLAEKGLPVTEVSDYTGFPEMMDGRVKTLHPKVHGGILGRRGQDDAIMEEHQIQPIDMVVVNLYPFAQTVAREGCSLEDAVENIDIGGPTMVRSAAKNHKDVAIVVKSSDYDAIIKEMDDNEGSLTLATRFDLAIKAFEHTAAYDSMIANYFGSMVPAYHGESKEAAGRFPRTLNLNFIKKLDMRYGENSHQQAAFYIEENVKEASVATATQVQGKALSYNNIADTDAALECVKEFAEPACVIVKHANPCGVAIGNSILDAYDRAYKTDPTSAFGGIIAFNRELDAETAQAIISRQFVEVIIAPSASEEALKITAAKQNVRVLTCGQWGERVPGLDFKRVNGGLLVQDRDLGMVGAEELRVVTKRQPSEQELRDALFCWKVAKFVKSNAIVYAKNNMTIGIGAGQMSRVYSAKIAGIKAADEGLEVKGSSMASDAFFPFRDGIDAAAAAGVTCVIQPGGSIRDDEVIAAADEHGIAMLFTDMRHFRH

SkPurH = molecular target: T3, SkPurH (Streptomyces kaniharaensis, UniProt A0A6N7KQI7); experiment: HPLC of product 6b; conditions: N10-formyl-THF; formylation without cyclization; 1 h
T3 sequence (A0A6N7KQI7 24-525): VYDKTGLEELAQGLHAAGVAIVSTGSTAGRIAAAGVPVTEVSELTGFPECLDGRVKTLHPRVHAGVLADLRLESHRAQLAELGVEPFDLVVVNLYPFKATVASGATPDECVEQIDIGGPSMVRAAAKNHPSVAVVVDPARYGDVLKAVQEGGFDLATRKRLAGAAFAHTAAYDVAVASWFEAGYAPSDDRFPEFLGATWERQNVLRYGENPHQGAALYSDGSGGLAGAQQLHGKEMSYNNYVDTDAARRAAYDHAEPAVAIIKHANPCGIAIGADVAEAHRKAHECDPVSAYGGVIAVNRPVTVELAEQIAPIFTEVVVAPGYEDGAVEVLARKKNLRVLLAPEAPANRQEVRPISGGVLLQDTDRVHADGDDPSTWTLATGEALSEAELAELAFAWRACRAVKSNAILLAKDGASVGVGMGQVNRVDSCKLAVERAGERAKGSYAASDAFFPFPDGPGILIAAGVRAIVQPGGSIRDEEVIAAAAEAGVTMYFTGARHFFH

EcPurH [2] = molecular target: T2, EcPurH; experiment: HPLC; conditions: cyclization to 7a
ForH [3] = molecular target: T4, ForH (Streptomyces kaniharaensis, UniProt A0A4V8H038); experiment: HPLC of product 7a; conditions: cyclization to 7a; 10 min incubation
ForH [4] = molecular target: T4, ForH; experiment: HPLC of product 7b; conditions: cyclization to 7b; 10 min incubation

Question: How did the “anion exchange HPLC, substrate consumption” value (ForC) turn out when `Nc1c([C@@H]2O[C@H](COP(=O)(O)O)[C@@H](O)[C@H]2O)n[nH]c1C(=O)O` [3b] was run?
Answer: Incubation of 3b with ForC along with L-aspartate and ATP led to the production

Question: How did the “enzymatic preparation of 6b” value (EcPurH [1]) turn out when `NC(=O)c1[nH]nc([C@@H]2O[C@H](COP(=O)(O)O)[C@@H](O)[C@H]2O)c1N` [5b] was run?
Answer: 6b was enzymatically prepared from 5b using E. coli PurH as the catalyst

Question: And the “HPLC of product 6b” value (SkPurH)?
Answer: incubation of 5b with S. kaniharaensis PurH (SkPurH) resulted in formylation of the pyrazolic amide

Question: Which “HPLC (supplement)” value (EcPurH [2]) does the source give for `NC(=O)c1ncn([C@@H]2O[C@H](COP(=O)(O)O)[C@@H](O)[C@H]2O)c1NC=O` [6a] here?
Answer: 6a could be processed to 7a, while 6b could not be converted to 7b

Question: What about the “HPLC of product 7a” value (ForH [3]) of the same molecule?
Answer: ForH demonstrates cyclase activity towards both 6a and 6b

Question: With `NC(=O)c1[nH]nc([C@@H]2O[C@H](COP(=O)(O)O)[C@@H](O)[C@H]2O)c1NC=O` [6b] as the molecule, how does the “HPLC of product 7b” value (ForH [4]) read?
Answer: ForH demonstrates cyclase activity towards both 6a and 6b
